Experimental data reported in patent US10273218B2, “BCL-3 inhibitors” (University College Cardiff Consultants Limited, priority 2014, dated 2019).

Key:
[1] = tested on: human breast cancer cell line MDA-MB-436; assay: transwell (Boyden chamber) cell migration assay after scratch; assay type: cell-based; settings: 10 micromolar compound, 24 hours before and 24 hours in transwell chambers, versus DMSO, compound 12, MEKi
Protocol: The migration of cells in the presence of a compound of Formula (I) or Formula (Ia) is determined using a Scratch assay.
For the Scratch Assay, 1 micromolar solutions of the compounds are prepared. In six well plates, the complete growth media of the seeded cells (density […] in 20 mL) is removed and replaced by 3 mL of a fresh one containing compounds of Formula (I) or Formula (Ia). Media is used as a negative compound.
After a 24 h incubation period at 5% CO2 and 37° C., the media is removed and a scratch is performed in each well. 1 mL of fresh complete growth media is used to wash the well. After its removal, 3 mL of a solution containing a compound of Formula (I) or Formula (Ia) is added in each well in triplicate. Pictures of the wells are then taken. After 24 h, pictures of the wells are again taken. […]
The cell migration assay used was the transwell (Boyden chamber) assay of cell migration in human breast cancer cell line MDA-MB-436. After a scratch was performed in each well the cells were incubated with a 10 micromolar solution of compound for 24 hours prior to passage into transwell chambers where they were maintained in the presence of compound for a further 24 hours before assessment of migration (measured by total fluorescence on opposing surface of transwell membrane following staining). Reduced fluorescence directly correlates with number of cells migrated. […]

[2] = tested on: human breast cancer MDA-MB-231 xenograft; assay: in vivo metastasis mouse Model 1 (seeding and early colonization of circulating tumour cells); design: species or system mice; settings: 3.5 mg/Kg intraperitoneal daily for 10 days, relative luminescence of thoracic region
Protocol: In all experiments, each compound was administered by intraperitoneally at 3.5 mg/kg.
(§1) One model (Model 1) studied the effect of the compound's ability to inhibit the seeding and early colonization of circulating tumour cells at distal sites, most commonly in the lungs and liver. Human tumour cell lines were injected into the bloodstream of recipient mice, followed by single daily intraperitoneal injections of the compound (3.5 mg/kg in 1% DMSO) for 10 consecutive days. Tumour burden was monitored longitudinally for up to 8 weeks in vivo by live luminescence imaging, and subsequently histology performed on affected organs at the end of the experiment.
as §1, with “Model 1 tested” for “One model (Model 1) studied”, “Bcl3i compounds” for “the compound's ability”, “Bcl3 inhibitor” for “the compound”
The X axis represents the number of days after xenograft and the Y axis is the relative luminescence of the thoracic region by Xenon IVIS scanning of mice following injection of d-luciferin for 10 minutes.
MDA-MB-231 human breast cancer cells were used in each of the three xenograft models of metastatic breast cancer.

## O=C(Nc1ccccc1C(=O)NCCN1CCOCC1)c1ccc2ccccc2c1 [Compound 31]
[1]
  reduction of cell migration (total fluorescence on opposing surface of transwell membrane): more effective at reducing cell migration than the known potent cell migration inhibitor MEKi
[2]
  potency of effect in Model 1 relative to compound 28: more potent effects than compound 28
[2]; versus controls and compound 12
  inhibition of metastasis / tumour burden in Model 1: equivalent inhibition of metastasis in vivo to compound 12
